This note sets out measurements from US8791094B2, “Treatment of prostate cancer” (Tokai Pharmaceuticals, Inc., priority 2009, dated 2014).

The nature of series [1]: Chronic administration toxicity in rats. The settings on record: administered chronically to rats. The class given is in vivo.
A short description of series [2]: Nonclinical safety evaluation (cell-based and animal models). The settings on record: nonclinical data. From the text: This is a first-in-man trial of Compound 1 and potential toxic effects in humans are not yet fully known. […] An additional known class effect, apparent mineralocorticoid excess (AME), was not seen in nonclinical studies. This trial has been designed with the adverse nonclinical findings, theoretical MOA, and consideration of known class effect issues in mind. The trial evaluates potential clinical benefit and provides proof of concept while minimizing risk to subjects.

The next series concerns the target T1, CYP17 (Homo sapiens, UniProt P05093).
T1 construct: made in house; host or cells: E. coli
T1 sequence (P05093 1-508): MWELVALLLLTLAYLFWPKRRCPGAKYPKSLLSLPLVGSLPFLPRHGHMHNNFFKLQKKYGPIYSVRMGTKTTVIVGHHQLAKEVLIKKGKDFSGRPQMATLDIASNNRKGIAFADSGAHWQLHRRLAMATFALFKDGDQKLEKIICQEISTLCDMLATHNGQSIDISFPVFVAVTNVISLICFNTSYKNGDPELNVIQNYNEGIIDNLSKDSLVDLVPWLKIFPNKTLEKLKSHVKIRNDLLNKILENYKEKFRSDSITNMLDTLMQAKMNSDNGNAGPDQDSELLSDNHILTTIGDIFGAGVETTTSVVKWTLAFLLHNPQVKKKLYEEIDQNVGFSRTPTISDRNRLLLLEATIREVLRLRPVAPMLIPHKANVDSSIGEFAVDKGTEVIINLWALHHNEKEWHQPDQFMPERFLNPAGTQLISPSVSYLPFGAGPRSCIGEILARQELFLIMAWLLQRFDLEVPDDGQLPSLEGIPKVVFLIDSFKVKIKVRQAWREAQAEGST
Kind of series: Inhibition of lyase activity (CYP17). Format: biochemical. The conditions noted are these: CYP17 expressed by transfected E. coli; radiolabelled 17α-hydroxypregnenolone substrate. The method, then:
Intact CYP17 expressed by transfected E. coli was isolated and purified as an enzyme source. Radiolabelled 17α-hydroxypregnenolone as the substrate. CYP17 activity was measured by the amount of tritiated acetic acid formed during the cleavage of the C-21 side chain of the substrate.

A short description of a further series: in vivo. The conditions noted are these: dog. The text has this: On an AUC basis the human starting dose is predicted to be 16 times lower than the NOAEL dose in dogs.
The subject of the next series is cytochrome P450 systems. Kind of series: In vitro safety testing: cytochrome P450 systems. Format: in vitro ADME.
For a further series, the system named is LNCaP. Kind of series: Inhibition of testosterone-induced proliferation, LNCaP. The class given is cell-based, human. The settings on record: LNCaP stimulated with 1 nM DHT. On the procedure:
(§1) Human prostate cancer cell lines (LNCaP and LAPC-4) were grown in culture and stimulated with 1 nM dihydrotestosterone (DHT). This concentration of DHT stimulated the proliferation of prostate cancer cells.

A further series deals with PSA. Put plainly: Clinical study in chemotherapy naive CRPC: PSA response. The class given is in vivo, human. The method, then: The primary efficacy endpoint is the percent of subjects with 50% or greater decrease in PSA from baseline to 12 weeks, or PSA nadir (whichever comes first). Frequency and percentage are calculated for each treatment group. The primary analysis is also repeated using the PP Population.
A clinical study was performed according to the protocol of Example 6. Compound (1) was administered to four cohorts, each in a different amount.

A short description of series [3]: Oral bioavailability (nonclinical). The settings on record: in vivo.
The test system of the next series is off-target receptors. Kind of series: In vitro safety testing: off-target receptors. The class given is binding.
The test system of series [4] is LAPC4 prostate cancer cell tumors. Kind of series: Growth of human prostate cancer xenografts in SCID mice. Format: in vivo. On the procedure:
Xenografts of LAPC4 prostate cancer cell tumors were implanted in SCID mice. […] Tumor size was measured weekly and compared with control mice that received vehicle, Casodex® or castration only.
In general terms: In xenograft studies the graft and the host belong to different species.

For the next series, the system named is LAPC-4. Put plainly: Inhibition of testosterone-induced proliferation, LAPC-4. Format: cell-based, human. The settings on record: LAPC-4 stimulated with 1 nM DHT. The method, then:
as §1

A short description of series [5]: In vitro safety testing: genotoxicity.

Consider `C[C@]12CC[C@H](O)CC1=CCC1C2CC[C@]2(C)C(n3cnc4ccccc43)=CCC12` (stereo partly drawn) [Compound (1), 3-β-Hydroxy-17-(1H-benzimidazol-1-yl)androsta-5,16-diene], for which the toxic responses entry in series [1] is listed as “fails to elicit toxic responses”. The “only safety signal seen” value in series [2] is “hepatoxicity”. Further, the “toxicity in cell-based and animal models” value in [2] was “minimal toxicity”. Besides, the 50% inhibitory concentration (IC50) – broadly, the point on the concentration scale where inhibition reaches its midpoint – at CYP17 is 300 nM. Also, in the series “in vivo”, the NOAEL (as a rule, the highest tested level that showed no adverse finding) was 150 mg/kg. The “interference with activity of cytochrome P450 systems known to metabolize many drugs” value in the series on cytochrome P450 systems is “does not interfere”. Also, the “inhibition of testosterone induced proliferation” value in the series with LNCaP and with LAPC-4 was “dose-dependent inhibition” in each case. The “Percentage of Patients With a PSA Response” value is recorded as 67% (4) in the series on PSA (Cohort 1, 650 mg/day, 6 patients treated); 67% (4) in the series with PSA (Cohort 2, 975 mg/day, 6 patients treated); 83% (5) in the series on PSA (Cohort 3, 1300 mg/day, 6 patients treated); 71% (5) in the series with PSA (Cohort 4, 1950 mg/day, 7 patients treated). The oral bioavailability entry in series [3] was “orally bioavailable”. Besides, in the series on off-target receptors, the “interaction with off-target receptors” value was “only at high micromolar concentrations”. In addition, the tumor growth entry in series [4] (50 mg/kg BW SC twice daily, compared with castration) is recorded as “comparable or more pronounced decrease in tumor growth compared to castration”. Also, the “size of androgen dependent human prostate tumors” value in [4] (SCID mouse models, levels corresponding to human subcutaneous doses of 140, 280, and 560 mg) is given as “dramatic reduction”. Also, the genotoxicity result in series [5] is on record as “does not have genotoxicity”.
